How the values were obtained:
[1] = molecular target: HBV C150Bo capsid (core) protein (Hepatitis B virus genotype D subtype adw, UniProt P03147, C107A/C48A/C61A/R150C); test: HBV assembly assay (fluorescence quenching in vitro capsid assembly); type: biochemical; conditions: at about 10 μM; 50 mM Hepes pH 7.5, 150 mM NaCl, 1 hour at room temperature
[2] = system: HBV replication in HepG2-2.2.15 cells; test: Dot-blot assay (inhibition of HBV replication); type: cell-based; conditions: at 10 μM, six days, reduction in HBV DNA levels
Description: Compounds active in the HBV assembly assay are tested for their activity and toxicity in cellular assay. In the first anti-viral assay, the ability of compounds to inhibit HBV replication in an HBV-producing hepatoma cell line using the dot-blot method is evaluated.
Briefly, confluent monolayers of HepG2-2.2.15 cells are incubated with complete medium containing various concentrations of a test compound. Three days later, the culture medium is replaced with fresh medium containing the appropriately diluted test compound. Six days following the initial administration of the test compound, the cell culture supernatant is collected, and cell lysis is performed. The samples are applied onto Nylos membranes and DNA is immobilized to the membrane by UV cross-linking. After pre-hybridization, the HBV probe is added and the hybridization is performed overnight. The membranes are exposed to the Kodak films; antiviral activity is calculated from the reduction in HBV DNA levels (EC50). The EC50 for antiviral activity is calculated from the dose response curves of active compounds. Assay performance over time is monitored by the use of the standard positive control compounds ETV, BAY 41-4109, and HAP-1.
Selected compounds were tested for their activity and toxicity in cellular assay. In the first anti-viral assay, the ability of compounds to inhibit HBV replication in an HBV-producing hepatoma cell line using the dot-blot method was evaluated.
Confluent monolayers of HepG2-2.2.15 cells were incubated with complete medium containing various concentrations of a test compound. Three days later, the culture medium was replaced with fresh medium containing the appropriately diluted test compound. Six days following the initial administration of the test compound, the cell culture supernatant was collected, and cell lysis was performed. The samples were applied onto Nylos membranes and DNA was immobilized to the membrane by UV cross-linking. After pre-hybridization, the HBV probe was added and the hybridization was performed overnight. The membranes were exposed to the Kodak films; antiviral activity was calculated from the reduction in HBV DNA levels (EC50). The EC50 for antiviral activity was calculated from the dose response curves of active compounds. Assay performance over time was monitored by the use of the standard positive control compounds ETV, BAY 41-4109, and HAP-1.

Chain of HBV C150Bo capsid (core) protein (P03147 1-150 C48A/C61A/C107A/R150C): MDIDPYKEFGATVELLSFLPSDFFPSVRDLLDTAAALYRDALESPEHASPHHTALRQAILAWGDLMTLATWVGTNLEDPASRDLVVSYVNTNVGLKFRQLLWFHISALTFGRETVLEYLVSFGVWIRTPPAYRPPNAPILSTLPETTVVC

## O=C(Nc1ccc(F)c(Cl)c1)c1ccc(CF)c(S(=O)(=O)N2CCC(O)C(F)(F)C2)c1 (stereo not drawn) [Compound 1995]
[1]
  Activity (HBV assembly assay): + (‘+’ indicates >50% activity at about 10 (μM))
[2]
  Activity in dot-blot-assay: + (‘+’ indicates >50% activity at 10 (μM))

## O=C(Nc1ccc(F)c(Cl)c1)c1ccc(O)c(S(=O)(=O)N2CCC(O)C(F)(F)C2)c1 (stereo not drawn) [Compound 1963]
[1]
  Activity (HBV assembly assay): + (‘+’ indicates >50% activity at about 10 (μM))

## COc1ccc(C(=O)Nc2ccc(F)c(Cl)c2)cc1S(=O)(=O)N1CCC(O)C(F)(F)C1 (stereo not drawn) [Compound 1964]
[1]
  Activity (HBV assembly assay): + (‘+’ indicates >50% activity at about 10 (μM))

## O=C(Nc1ccc(F)c(F)c1)c1ccc(F)c(S(=O)(=O)N2CCC(O)C(F)(F)C2)c1 (stereo not drawn) [Compound 1733]
[1]
  Activity (HBV assembly assay): + (‘+’ indicates >50% activity at about 10 (μM))
[2]
  Activity in dot-blot-assay: + (‘+’ indicates >50% activity at 10 (μM))

## CCOc1ccc(C(=O)Nc2ccc(F)c(Cl)c2)cc1S(=O)(=O)N1CCC(O)C(F)(F)C1 (stereo not drawn) [Compound 1965]
[1]
  Activity (HBV assembly assay): + (‘+’ indicates >50% activity at about 10 (μM))

## O=C(Nc1ccc(F)c(Cl)c1)c1ccc(F)c(S(=O)(=O)N2CCC(O)C(F)(F)C2)c1 (stereo not drawn) [Compound 1734]
[1]
  Activity (HBV assembly assay): + (‘+’ indicates >50% activity at about 10 (μM))
[2]
  Activity in dot-blot-assay: + (‘+’ indicates >50% activity at 10 (μM))

## O=C(Nc1ccc(F)c(Cl)c1)c1ccc(OC2CC2)c(S(=O)(=O)N2CCC(O)C(F)(F)C2)c1 (stereo not drawn) [Compound 1967]
[1]
  Activity (HBV assembly assay): + (‘+’ indicates >50% activity at about 10 (μM))

## O=C(Nc1cc(F)c(F)c(F)c1)c1ccc(F)c(S(=O)(=O)N2CCC(O)C(F)(F)C2)c1 (stereo not drawn) [Compound 1732]
[1]
  Activity (HBV assembly assay): + (‘+’ indicates >50% activity at about 10 (μM))
[2]
  Activity in dot-blot-assay: + (‘+’ indicates >50% activity at 10 (μM))

Source: patent publication US9400280B2, “Piperidine derivatives and methods of treating hepatitis B infections” (Novira Therapeutics, Inc., priority 2014, dated 2016)
